Molecules are shown by their SMILES. Where two headings read alike, the source gives them in different places.

The test system of experiment [1] is Cabbage Looper (Trichoplusia ni, TRIPNI). The experiment is described as follows: Bioassays on Cabbage Looper (CL), 128-well diet tray assay. The format is in vivo. To be noted: Trichoplusia ni. In outline:
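Each of eight wells receives artificial diet treated at 50 μg/cm^2 with the test molecule, then one to five second-instar larvae. Incubation runs five to seven days at 25° C with a 14:10 light-dark cycle under vented covers. Mortality is scored per well as a percentage and averaged.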

The subject of experiment [2] is Beet Armyworm (Spodoptera exigua, LAPHEG). The experiment is described as follows: Bioassays on Beet Armyworm (BAW), 128-well diet tray assay. It counts as in vivo. To be noted: Spodoptera exigua. The gist of the method:
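Percent larval mortality, averaged across eight wells, scored after five to seven days at 25° C. under 14:10 light-dark. Each well held one to five second instars feeding on diet dosed at 50 μg/cm^2 with compound from 90:10 acetone-water, solvent dried off.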

Setting [3] is: Cabbage Looper, Table ABC / ABC-DP rating, read-out: CL rating.
Setting [4] is: Beet Armyworm, Table ABC / ABC-DP rating, read-out: BAW rating.
The mark [5] stands for this setting: Cabbage Looper, rating class, read-out: CL.
The mark [6] stands for this setting: Beet Armyworm, rating class, read-out: BAW.
Where [7] appears, read: Table ABC: Biological Results, species CL, read-out: CL.
The mark [8] stands for this setting: Table ABC: Biological Results, species BAW, read-out: BAW.

For the compound `CN(C)CC(=O)N(C)NC(=O)c1cc(NC(=O)[C@H]2[C@H](c3cc(Cl)cc(Cl)c3)C2(Cl)Cl)ccc1Cl` (relative stereo) [F2526, trans-2,2-Dichloro-N-(4-chloro-3-(2-(dimethylglycyl)-2-methylhydrazine-1-carbonyl)phenyl)-3-(3,5-dichlorophenyl)cyclopropane-1-carboxamide], the pest or weed control at 50 µg/cm2 in experiment [1] (setting [3]) and in experiment [2] (setting [4]) was 50 to 100% each time.
Regarding `O=C(Nc1c(F)ccc(NC(=O)C(F)(F)F)c1F)c1cc(NC(=O)[C@H]2[C@H](c3ccc(Cl)c(Cl)c3)C2(Cl)Cl)ccc1F` [F1513, 5-((1R,3R)-2,2-Dichloro-3-(3,4-dichlorophenyl)cyclopropane-1-carboxamido)-N-(2,6-difluoro-3-(2,2,2-trifluoroacetamido)phenyl)-2-fluorobenzamide], the pest or weed control at 50 µg/cm2 in experiment [1] (setting [5]) and in experiment [2] (setting [6]) was 50 to 100% in each case.
`Cc1cc(NC(=O)[C@H]2[C@H](c3ccc(Cl)c(Cl)c3)C2(Cl)Cl)cc(C(=O)Nc2c(F)ccc(N)c2F)c1Cl` [F1426, N-(3-Amino-2,6-difluorophenyl)-2-chloro-5-((1R,3R)-2,2-dichloro-3-(3,4-dichlorophenyl)cyclopropane-1-carboxamido)-3-methylbenzamide]: the pest or weed control at 50 µg/cm2 in experiment [1] (setting [5]) and in experiment [2] (setting [6]) was 50 to 100% each time.
For `CC(CC(F)(F)F)C(=O)Nc1c(F)ccc(NC(=O)c2cc(NC(=O)[C@H]3[C@H](c4ccc(Cl)c(Cl)c4)C3(Cl)Cl)ccc2Cl)c1F` (stereo partly drawn) [F1862, 2-Chloro-5-((1R,3R)-2,2-dichloro-3-(3,4-dichlorophenyl)cyclopropane-1-carboxamido)-N-(2,4-difluoro-3-(4,4,4-trifluoro-2-methylbutanamido)phenyl) benzamide], the pest or weed control at 50 µg/cm2 in experiment [1] (setting [3]) and in experiment [2] (setting [4]) was 50 to 100% throughout.
Regarding `CC(=O)Nc1c(F)ccc(NC(=O)c2cc(NC(=O)[C@H]3[C@H](c4ccc(F)c(C(F)(F)F)c4)C3(Cl)Cl)ccc2Cl)c1F` [F1231, N-(3-Acetamido-2,4-difluorophenyl)-2-chloro-5-((1R,3R)-2,2-dichloro-3-(4-fluoro-3-(trifluoromethyl)phenyl)cyclopropane-1-carboxamido)benzamide], the pest or weed control at 50 µg/cm2 in experiment [1] (setting [7]) and in experiment [2] (setting [8]) was 50 to 100% throughout.
For the compound `O=C(NNc1ccc(Cl)c(C(F)(F)F)c1)c1cc(NC(=O)[C@H]2[C@H](c3cc(Cl)cc(Cl)c3)C2(Cl)Cl)ccc1Cl` (relative stereo) [F2501, trans-2,2-dichloro-N-(4-chloro-3-(2-(4-chloro-3-(trifluoromethyl)phenyl)hydrazine-1-carbonyl)phenyl)-3-(3,5-dichlorophenyl)cyclopropane-1-carboxamide], the pest or weed control at 50 µg/cm2 in experiment [1] (setting [3]) and in experiment [2] (setting [4]) was 50 to 100% throughout.
For `O=C(Nc1ccc(F)cc1F)c1cc(NC(=O)[C@H]2[C@@H](c3cc(Cl)c(Cl)c(C(F)(F)F)c3)C2(Cl)Cl)ccc1Cl` (relative stereo) [F1148, cis-2-Chloro-5-(2,2-dichloro-3-(3,4-dichloro-5-(trifluoromethyl)phenyl)cyclopropane-1-carboxamido)-N-(2,4-difluorophenyl)benzamide], the pest or weed control at 50 µg/cm2 in experiment [1] (setting [7]) and in experiment [2] (setting [8]) was 50 to 100% each time.
As to `CC(C)NC(=S)NNC(=O)c1cc(NC(=O)[C@H]2[C@H](c3cc(Cl)cc(Cl)c3)C2(Cl)Cl)ccc1Cl` (relative stereo) [F2540, trans-2,2-Dichloro-N-(4-chloro-3-(2-(isopropylcarbamothioyl)hydrazine-1-carbonyl)phenyl)-3-(3,5-dichlorophenyl)cyclopropane-1-carboxamide], the pest or weed control at 50 µg/cm2 in experiment [1] (setting [3]) and in experiment [2] (setting [4]) was 50 to 100% each time.
As for `O=C(NCC(F)(F)F)c1cc(NC(=O)[C@@H]2[C@@H](c3ccc(F)c(F)c3)C2(Cl)Cl)ccc1Cl` [F2100, 2-Chloro-5-((1S,3S)-2,2-dichloro-3-(3,4-difluorophenyl)cyclopropane-1-carboxamido)-N-(2,2,2-trifluoroethyl)benzamide], the pest or weed control at 50 µg/cm2 in experiment [1] (setting [3]) and in experiment [2] (setting [4]) was 50 to 100% throughout.

Source of the values: US20250228239A1, “MOLECULES HAVING PESTICIDAL UTILITY, AND INTERMEDIATES, COMPOSITIONS, AND PROCESSES, RELATED THERETO” (priority 2024, published 2025).
